#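 Values below derive from 48-hour exposures of cells grown in 96-well plates, with endpoints linearly interpolated between the two concentrations bracketing the appropriate inhibition level. Here, GI50 denotes the concentration required for 50% inhibition of growth.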 Calls of active or inactive are those of the source. Rule as the data show it: active = GI50 up to about 1.1 µM and inactive = higher.
# What was measured:
# Assay in all cases: NCI tumour cell line growth inhibition, 48 h
# [1] = system: CCRF-CEM
# [2] = system: HCT-15
# [3] = system: HT-29
# [4] = system: K562
# [5] = system: KM12
# [6] = system: NCI-H23
# [7] = system: NCI-H460
# [8] = system: NCI-H522
# [9] = system: OVCAR-3
# [10] = system: RPMI-8226
# [11] = system: RXF 393
# [12] = system: SF-268
# [13] = system: SK-MEL-28
# [14] = system: SK-OV-3
# [15] = system: SNB-19
# [16] = system: SNB-75
# [17] = system: UACC-257
SMILES,GI50 [1],GI50 [2] [µM],GI50 [3],GI50 [4],GI50 [5],GI50 [6],GI50 [7],GI50 [8],GI50 [9],GI50 [10],GI50 [11],GI50 [12],GI50 [13],GI50 [14],GI50 [15],GI50 [16],GI50 [17]
O=C1NC2(CCCC2)C(=O)C12CCCC2,> 100 µM (inactive),> 100,> 100 µM (inactive),> 100 µM (inactive),> 100 µM (inactive),> 100 µM (inactive),> 100 µM (inactive),> 100 µM (inactive),> 100 µM (inactive),> 100 µM (inactive),> 100 µM (inactive),> 100 µM (inactive),> 100 µM (inactive),> 100 µM (inactive),> 100 µM (inactive),> 100 µM (inactive),> 100 µM (inactive)
CCOC(=O)/C(=C/c1ccc(OC)cc1)N(CC)CC,> 100 µM (inactive),> 100,> 100 µM (inactive),> 100 µM (inactive),> 100 µM (inactive),> 100 µM (inactive),> 100 µM (inactive),> 100 µM (inactive),> 100 µM (inactive),> 100 µM (inactive),–,> 100 µM (inactive),> 100 µM (inactive),> 100 µM (inactive),> 100 µM (inactive),–,> 100 µM (inactive)
CN(C(=O)/C=C/c1ccccc1)C1C2CN3CCC(O2)C13 (stereo not drawn),> 100 µM (inactive),> 100,> 100 µM (inactive),> 100 µM (inactive),> 100 µM (inactive),> 100 µM (inactive),> 100 µM (inactive),> 100 µM (inactive),> 100 µM (inactive),–,> 100 µM (inactive),> 100 µM (inactive),> 100 µM (inactive),> 100 µM (inactive),> 100 µM (inactive),> 100 µM (inactive),> 100 µM (inactive)
FC(F)(F)C1(Cl)C(c2ccccc2)=C1c1ccccc1,2.49 µM (inactive),14.3,15.8 µM (inactive),12.2 µM (inactive),15.6 µM (inactive),15.7 µM (inactive),16 µM (inactive),–,17.2 µM (inactive),29.7 µM (inactive),13.3 µM (inactive),16.9 µM (inactive),14.9 µM (inactive),18.2 µM (inactive),17.9 µM (inactive),> 10 µM (inactive),14 µM (inactive)
N[C@H](C(=O)O)[C@H](Cl)CC(=O)O,> 100 µM (inactive),> 100,> 100 µM (inactive),> 100 µM (inactive),> 100 µM (inactive),> 100 µM (inactive),> 100 µM (inactive),> 100 µM (inactive),> 100 µM (inactive),–,> 100 µM (inactive),> 100 µM (inactive),> 100 µM (inactive),> 100 µM (inactive),> 100 µM (inactive),> 100 µM (inactive),> 100 µM (inactive)
N#CC1(Cc2ccccc2Cl)c2ccccc2C=CN1C(=O)c1ccccc1 (stereo not drawn),57.4 µM (inactive),98.6,75.5 µM (inactive),25.1 µM (inactive),> 100 µM (inactive),28.2 µM (inactive),–,86.1 µM (inactive),> 100 µM (inactive),66.5 µM (inactive),23.2 µM (inactive),> 100 µM (inactive),54.8 µM (inactive),> 100 µM (inactive),> 100 µM (inactive),> 100 µM (inactive),78.7 µM (inactive)
CC1=C2CCCC2=C/C(=N/Nc2ccc([N+](=O)[O-])cc2[N+](=O)[O-])CC1,> 100 µM (inactive),–,> 100 µM (inactive),> 100 µM (inactive),> 100 µM (inactive),> 100 µM (inactive),> 100 µM (inactive),> 100 µM (inactive),> 100 µM (inactive),> 100 µM (inactive),> 100 µM (inactive),> 100 µM (inactive),> 100 µM (inactive),> 100 µM (inactive),> 100 µM (inactive),45.2 µM (inactive),> 100 µM (inactive)
CC(=O)N(C)OC(=O)CC(=O)c1ccccc1,> 100 µM (inactive),–,> 100 µM (inactive),> 100 µM (inactive),> 100 µM (inactive),> 100 µM (inactive),> 100 µM (inactive),> 100 µM (inactive),> 100 µM (inactive),> 100 µM (inactive),> 100 µM (inactive),> 100 µM (inactive),> 100 µM (inactive),> 100 µM (inactive),> 100 µM (inactive),76.9 µM (inactive),> 100 µM (inactive)
CC(C)(C)NNC(=O)CCn1[nH]c(=O)c(Cl)c(Cl)c1=O,> 100 µM (inactive),> 100,> 100 µM (inactive),> 100 µM (inactive),> 100 µM (inactive),> 100 µM (inactive),> 100 µM (inactive),> 100 µM (inactive),> 100 µM (inactive),> 100 µM (inactive),> 100 µM (inactive),> 100 µM (inactive),> 100 µM (inactive),> 100 µM (inactive),> 100 µM (inactive),> 100 µM (inactive),> 100 µM (inactive)
COC(=O)C1C(OCc2ccccc2)C2CCC1(OC)C=C2C (stereo not drawn),26.9 µM (inactive),> 89.3,> 100 µM (inactive),41.1 µM (inactive),> 100 µM (inactive),> 88.5 µM (inactive),> 100 µM (inactive),29.4 µM (inactive),> 51.6 µM (inactive),23.6 µM (inactive),54.3 µM (inactive),> 100 µM (inactive),> 100 µM (inactive),> 100 µM (inactive),> 81.8 µM (inactive),> 100 µM (inactive),42.8 µM (inactive)
COc1cc2c(cc1OC)-c1c3cc(O)ccc3nn[n+]1CC2,> 100 µM (inactive),–,> 100 µM (inactive),> 100 µM (inactive),> 100 µM (inactive),> 100 µM (inactive),> 100 µM (inactive),> 100 µM (inactive),> 100 µM (inactive),> 100 µM (inactive),> 100 µM (inactive),> 100 µM (inactive),> 100 µM (inactive),> 100 µM (inactive),> 100 µM (inactive),> 100 µM (inactive),–
COc1ccccc1NC(=O)C1=C(C)NC(C)=C(C(=O)Nc2ccccc2OC)C1c1ccc(C2C(C(=O)Nc3ccccc3OC)=C(C)NC(C)=C2C(=O)Nc2ccccc2OC)cc1,0.813 µM (active),2.72,1.71 µM (inactive),2.18 µM (inactive),1.64 µM (inactive),2.39 µM (inactive),2.78 µM (inactive),1.8 µM (inactive),2.29 µM (inactive),2.43 µM (inactive),2.38 µM (inactive),2.82 µM (inactive),2.44 µM (inactive),13 µM (inactive),3.89 µM (inactive),10.2 µM (inactive),2.33 µM (inactive)
[N-]=[N+]=NC1(c2ccccc2)C(=O)C(Cl)=C(c2ccccc2)N(c2ccccc2)C1=O (stereo not drawn),59.7 µM (inactive),> 100,> 100 µM (inactive),46.8 µM (inactive),> 100 µM (inactive),64.9 µM (inactive),> 100 µM (inactive),41.2 µM (inactive),65.3 µM (inactive),–,–,> 100 µM (inactive),> 100 µM (inactive),31.3 µM (inactive),> 100 µM (inactive),> 100 µM (inactive),> 100 µM (inactive)
O=C(CCc1n[nH]c(=S)o1)Nc1ccc(Cl)cc1Cl,43.6 µM (inactive),20.9,34.3 µM (inactive),38.7 µM (inactive),> 100 µM (inactive),> 100 µM (inactive),> 100 µM (inactive),61.8 µM (inactive),> 100 µM (inactive),16.9 µM (inactive),–,> 100 µM (inactive),> 100 µM (inactive),> 100 µM (inactive),> 100 µM (inactive),> 100 µM (inactive),> 100 µM (inactive)
C#CCOCn1cnc2ncnc(N)c21,> 100 µM (inactive),–,> 100 µM (inactive),> 100 µM (inactive),> 100 µM (inactive),> 100 µM (inactive),> 100 µM (inactive),> 100 µM (inactive),> 100 µM (inactive),> 100 µM (inactive),> 100 µM (inactive),> 100 µM (inactive),> 100 µM (inactive),> 100 µM (inactive),> 100 µM (inactive),> 100 µM (inactive),> 100 µM (inactive)
CC(=O)OC1(C#N)CC2OC1C1N=NN(C(=O)OC(C)(C)C)C21 (stereo not drawn),15.1 µM (inactive),13.8,> 100 µM (inactive),29.9 µM (inactive),–,> 10 µM (inactive),> 100 µM (inactive),> 100 µM (inactive),43.1 µM (inactive),30.3 µM (inactive),> 31.6 µM (inactive),61.1 µM (inactive),16.9 µM (inactive),> 100 µM (inactive),> 100 µM (inactive),70.1 µM (inactive),20.4 µM (inactive)
Cc1nc(=O)[nH]c2[nH][nH]c(=O)c12,> 100 µM (inactive),> 100,> 100 µM (inactive),> 100 µM (inactive),> 100 µM (inactive),> 100 µM (inactive),> 100 µM (inactive),> 100 µM (inactive),> 100 µM (inactive),> 100 µM (inactive),> 100 µM (inactive),> 100 µM (inactive),> 100 µM (inactive),> 100 µM (inactive),–,–,–
N#Cc1ccccc1Sc1ccccc1N,73.1 µM (inactive),–,> 100 µM (inactive),70.6 µM (inactive),93.3 µM (inactive),67.8 µM (inactive),> 100 µM (inactive),–,–,–,80.2 µM (inactive),> 100 µM (inactive),> 100 µM (inactive),> 100 µM (inactive),> 100 µM (inactive),–,> 100 µM (inactive)

# — ChEMBL document CHEMBL1201862, “PubChem BioAssay data set” (2004)
